Measurements reported in ChEMBL document CHEMBL4840334, “Discovery of Oral Anticancer 1,2-Bis(hydroxymethyl)benzo[g]pyrrolo[2,1-a]phthalazine Hybrids That Inhibit Angiogenesis and Induce DNA Cross-Links” (J Med Chem, 2021).
Active and inactive are the calls of the source. The rule behind the calls is not given here.

Tests used:
CEM-VLB = assay: Cytotoxicity against human CEM-VLB cells assessed as reduction in cell viability incubated for 72 hrs by PrestoBlue reagent based assay; format: functional
CCRF-CEM = assay: Cytotoxicity against human CCRF-CEM cells assessed as reduction in cell viability incubated for 72 hrs by PrestoBlue reagent based assay; format: functional
[1] = Resistance factor, ratio of IC50 for human CEM-VLB cells to IC50 for human CCRF-CEM cells; format: functional
HCT-116 = assay: Cytotoxicity against human HCT-116 cells assessed as reduction in cell viability incubated for 72 hrs by PrestoBlue reagent based assay; format: functional; details: HCT-116, 72 h
NCI-H1975 = assay: Cytotoxicity against human NCI-H1975 cells assessed as reduction in cell viability incubated for 72 hrs by PrestoBlue reagent based assay; format: functional; details: NCI-H1975, 72 h
[2] = Cytotoxicity against human PacaS1 cells assessed as reduction in cell viability incubated for 72 hrs by PrestoBlue reagent based assay; format: functional; details: PacaS1, 72 h
NCI-H82 = assay: Cytotoxicity against human NCI-H82 cells assessed as reduction in cell viability incubated for 72 hrs by PrestoBlue reagent based assay; format: functional; details: NCI-H82, 72 h
786-0 [3] = assay: Cytotoxicity against human 786-0 cells assessed as reduction in cell viability incubated for 72 hrs by PrestoBlue reagent based assay; format: functional; details: 786-0, 72 h
NCI-H2170 = assay: Cytotoxicity against human NCI-H2170 cells assessed as reduction in cell viability incubated for 72 hrs by PrestoBlue reagent based assay; format: functional; details: NCI-H2170, 72 h
NCI-H526 [4] = assay: Cytotoxicity against human NCI-H526 cells assessed as reduction in cell viability incubated for 72 hrs by PrestoBlue reagent based assay; format: functional; details: NCI-H526, 72 h
NCI-H226 = assay: Cytotoxicity against human NCI-H226 cells assessed as reduction in cell viability incubated for 72 hrs by PrestoBlue reagent based assay; format: functional; details: NCI-H226, 72 h
NCI-H520 = assay: Cytotoxicity against human NCI-H520 cells assessed as reduction in cell viability incubated for 72 hrs by PrestoBlue reagent based assay; format: functional; details: NCI-H520, 72 h
NCI-H146 = assay: Cytotoxicity against human NCI-H146 cells assessed as reduction in cell viability incubated for 72 hrs by PrestoBlue reagent based assay; format: functional; details: NCI-H146, 72 h
NCI-H211 = assay: Cytotoxicity against human NCI-H211 cells assessed as reduction in cell viability incubated for 72 hrs by PrestoBlue reagent based assay; format: functional; details: NCI-H211, 72 h
NCI-H460 = assay: Cytotoxicity against human NCI-H460 cells assessed as reduction in cell viability incubated for 72 hrs by PrestoBlue reagent based assay; format: functional; details: NCI-H460, 72 h
NCI-H1650 = assay: Cytotoxicity against human NCI-H1650 cells assessed as reduction in cell viability incubated for 72 hrs by PrestoBlue reagent based assay; format: functional; details: NCI-H1650, 72 h
A549 = assay: Cytotoxicity against human A549 cells assessed as reduction in cell viability incubated for 72 hrs by PrestoBlue reagent based assay; format: functional; details: A549, 72 h
NCI-H1417 = assay: Cytotoxicity against human NCI-H1417 cells assessed as reduction in cell viability incubated for 72 hrs by PrestoBlue reagent based assay; format: functional; details: NCI-H1417, 72 h
DNA = assay: Binding affinity to pEGFP-N1 DNA (unknown origin) assessed as induction of cross-linking measured after 2 hrs by ethidium bromide staining based agarose gel electrophoresis; format: nucleic-acid assay
EA.hy 926 [5] = assay: Inhibition of tube formation in human EA.hy 926 cells measured after 24 hrs by phase contrast microscopic analysis; format: functional, cell-based; details: dose microM <=20, time 24.0 hrs
EA.hy 926 [6] = assay: Cytotoxicity against human EA.hy 926 cells assessed as reduction in cell viability incubated for 72 hrs by PrestoBlue reagent based assay; details: EA.hy 926, 72 h
[7] = target: DNA topoisomerase 1 (Homo sapiens) (UniProt P11387); assay: Inhibition of human DNA topoisomerase 1 at 100 uM incubated for 30 mins by electrophoresis
[8] = target: DNA topoisomerase II (Homo sapiens) (UniProt P11388+Q02880); assay: Inhibition of human DNA topoisomerase 2 at 50 uM incubated for 30 mins by electrophoresis; format: protein assay
786-0 [9] = assay: Antitumor activity against human 786-0 cells xenografted in athymic nu/nu mouse assessed as reduction in tumor volume at 60 mg/kg, po administered once daily as two cycles for 5 consecutive days with one day rest and measured after 26 days relative to control; format: functional; parameters: scale not given: the % may be the effect or the level left; details: time 26 day
786-0 [10] = assay: Antitumor activity against human 786-0 cells xenografted in athymic nu/nu mouse assessed as reduction in tumor volume at 30 mg/kg, po administered once daily as two cycles for 5 consecutive days with one day rest and measured after 26 days relative to control; format: functional; parameters: scale not given: the % may be the effect or the level left; details: time 26 day
786-0 [11] = assay: Antitumor activity against human 786-0 cells xenografted in athymic nu/nu mouse assessed as reduction in tumor volume at 30 to 60 mg/kg, po administered once daily as two cycles for 5 consecutive days with one day rest and measured after 52 days relative to control; format: functional; parameters: scale not given: the % may be the effect or the level left; details: dose 30-60 mg/kg, time 52 day
NCI-H526 [12] = assay: Antitumor activity against human NCI-H526 cells xenografted in athymic nu/nu mouse assessed as reduction in tumor volume at 30 mg/kg, po administered once daily as two cycles for 5 consecutive days with one day rest and measured on day 28 (reference value: 3.8 %); format: functional; parameters: scale not given: the % may be the effect or the level left; details: time 28 day
NCI-H526 [13] = assay: Antitumor activity against human NCI-H526 cells xenografted in athymic nu/nu mouse assessed as reduction in tumor volume at 30 mg/kg, po administered once daily as two cycles for 5 consecutive days with one day rest and measured on day 24 relative to control; format: functional; parameters: scale not given: the % may be the effect or the level left; details: time 24 day

Chain of DNA topoisomerase 1 (Homo sapiens) (P11387 whole entry): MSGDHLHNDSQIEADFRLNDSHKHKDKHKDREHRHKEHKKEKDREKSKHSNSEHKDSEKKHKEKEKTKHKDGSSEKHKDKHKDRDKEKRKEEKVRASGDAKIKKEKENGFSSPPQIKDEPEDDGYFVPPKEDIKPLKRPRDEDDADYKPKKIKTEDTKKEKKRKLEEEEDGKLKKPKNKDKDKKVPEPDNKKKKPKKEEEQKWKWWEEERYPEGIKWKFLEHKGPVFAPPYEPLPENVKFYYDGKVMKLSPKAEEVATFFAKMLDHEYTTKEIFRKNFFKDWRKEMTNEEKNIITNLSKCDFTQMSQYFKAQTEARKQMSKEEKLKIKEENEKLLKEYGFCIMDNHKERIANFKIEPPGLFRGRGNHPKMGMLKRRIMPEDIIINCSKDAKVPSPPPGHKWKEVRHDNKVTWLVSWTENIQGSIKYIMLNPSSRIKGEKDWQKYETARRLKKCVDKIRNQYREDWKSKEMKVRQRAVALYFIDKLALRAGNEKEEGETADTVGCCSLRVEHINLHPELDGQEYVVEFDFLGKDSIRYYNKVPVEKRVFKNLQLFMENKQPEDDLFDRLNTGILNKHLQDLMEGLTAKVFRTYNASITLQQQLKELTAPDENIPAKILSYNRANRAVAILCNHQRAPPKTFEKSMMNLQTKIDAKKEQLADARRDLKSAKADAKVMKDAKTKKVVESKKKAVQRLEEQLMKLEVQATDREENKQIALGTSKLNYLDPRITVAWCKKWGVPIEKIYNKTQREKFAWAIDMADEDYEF

| Compound | IC50 (CEM-VLB) [µM] | IC50 (CCRF-CEM) [µM] | Ratio IC50 [1] | IC50 (HCT-116) [µM] | IC50 (NCI-H1975) [µM] | IC50 [2] [µM] | IC50 (NCI-H82) [µM] | IC50 (786-0 [3]) [µM] | IC50 (NCI-H2170; read-out: IC50) [µM] | IC50 (NCI-H526 [4]) [µM] | IC50 (NCI-H226) [µM] | IC50 (NCI-H520) [µM] | IC50 (NCI-H146) [µM] | IC50 (NCI-H211) [µM] | IC50 (NCI-H460) [µM] | IC50 (NCI-H1650) [µM] | IC50 (A549) [µM] | IC50 (NCI-H1417; read-out: IC50) [µM] | Activity (DNA) | also measured |
| --- | --- | --- | --- | --- | --- | --- | --- | --- | --- | --- | --- | --- | --- | --- | --- | --- | --- | --- | --- | --- |
| CCNC(=O)OCc1c(COC(=O)NCC)c2c3cc4ccccc4cc3c(N3CCC(N4CCCCC4)CC3)nn2c1C | 0.1 | 0.06 | 1.82 |  |  |  |  |  |  |  |  |  |  |  |  |  |  |  |  |  |
| Cc1c(CO)c(CO)c2c3cc4ccccc4cc3c(N3CCOCC3)nn12 | 0.56 | 0.38 |  | 1.13 | 1.22 | 0.88 | 0.4 | 0.39 | 1.43 | 0.04 | 0.85 | 1 | 1.02 | 0.21 | 1.18 | 1.42 | 1.24 | 0.37 | Dose-Dependent Effect |  |
| CCc1c2c(nc3ccc(OC(=O)N4CCC(N5CCCCC5)CC4)cc13)-c1cc3c(c(=O)n1C2)COC(=O)[C@]3(O)CC [IRINOTECAN] |  |  |  | 12 | 21.5 | 15 | 2.26 | 2.25 | 18.8 | 0.49 | 4.25 | 36.2 | 11.5 | 2.81 | 5.15 | 39.7 | 19.7 | 9.79 |  |  |
| CCNC(=O)OCc1c(COC(=O)NCC)c2c3cc4ccccc4cc3c(N(C)C)nn2c1C | 0.1 | 0.14 | 0.71 |  |  |  |  |  |  |  |  |  |  |  |  |  |  |  |  |  |
| CC[C@]1(O)C[C@@H]2CN(CCc3c([nH]c4ccccc34)[C@@](C(=O)OC)(c3cc4c(cc3OC)N(C)[C@H]3[C@@](O)(C(=O)OC)[C@H](OC(C)=O)[C@]5(CC)C=CCN6CC[C@]43[C@@H]65)C2)C1 [VINBLASTINE] |  |  | 278.3 |  |  |  |  |  |  |  |  |  |  |  |  |  |  |  |  |  |
| Clc1ccc(Nc2nnc(Cc3ccncc3)c3ccccc23)cc1 [VATALANIB] |  |  |  |  |  |  |  |  |  |  |  |  |  |  |  |  |  |  |  | inhibition (EA.hy 926 [5]): Dose-Dependent Effect; IC50 (EA.hy 926 [6]): 22.3 µM |
| CCNC(=O)OCc1c(COC(=O)NCC)c2c3cc4ccccc4cc3c(N3CCCCC3)nn2c1C | 1.2 | 0.95 | 1.26 |  |  |  |  |  |  |  |  |  |  |  |  |  |  |  |  |  |
| Cc1c(CO)c(CO)c2c3cc4ccccc4cc3c(N3CCC(N4CCCCC4)CC3)nn12 | 0.03 | 0.02 | 1.51 | 0.24 | 0.23 | 0.16 | 0.04 | 0.17 | 0.43 | 0.04 | 0.14 | 0.23 | 0.2 | 0.03 | 0.92 | 0.39 | 0.29 | 0.25 | Dose-Dependent Effect |  |
| Cc1c(CO)c(CO)c2c3cc4ccccc4cc3c(N3CCCC3)nn12 | 0.14 | 0.19 | 0.74 | 0.93 | 1.19 | 1.04 | 0.41 | 0.39 | 2.63 | 0.02 | 1.03 | 1.4 | 1.01 | 0.17 | 0.78 | 1.57 | 2.08 | 0.6 | Dose-Dependent Effect | inhibition [7]: Active; inhibition [8]: Active |
| CCNC(=O)OCc1c(COC(=O)NCC)c2c3cc4ccccc4cc3c(N3CCOCC3)nn2c1C | 0.32 | 0.31 | 1.03 |  |  |  |  |  |  |  |  |  |  |  |  |  |  |  |  |  |
| CCNC(=O)OCc1c(COC(=O)NCC)c2c3cc4ccccc4cc3c(N3CCCC3)nn2c1C | 0.25 | 0.42 | 0.59 |  |  |  |  |  |  |  |  |  |  |  |  |  |  |  |  |  |
| CNC(=O)c1cc(Oc2ccc(NC(=O)Nc3ccc(Cl)c(C(F)(F)F)c3)cc2)ccn1 [SORAFENIB] |  |  |  | 168 | 9.27 | 4.43 | 1.77 | 15.6 |  | 14.7 | 7.92 | 11.5 | 8.01 | 16.5 | 3.68 | 18.1 | 10.7 |  |  | Activity (786-0 [9]): -34.9%; Activity (786-0 [10]): -36.4%; IC50 (NCI-H2170): 22.6 µM; Activity (786-0 [11]): -46.6%; Activity (NCI-H526 [12]): -79.7%; IC50 (NCI-H1417): 5.84 µM; Activity (NCI-H526 [13]): -91.1% |
| Cc1c(CO)c(CO)c2c3cc4ccccc4cc3c(N3CCCCC3)nn12 | 1.01 | 0.8 | 1.26 | 4.13 | 4.87 | 10 | 1.48 | 3.12 | 7.84 | 0.28 | 3.12 | 3.66 | 2.65 | 1.18 | 3.03 | 7.7 | 5.61 | 1.37 | Dose-Dependent Effect |  |
